Article PMC4575645 (ACS chemical biology, 2015)

Columns and labels:
CalS13 = CalS13 (Micromonospora echinospora, UniProt Q8KND8); assay: X-ray crystal structure, […] Å; type: binding
WecE = WecE (Escherichia coli, UniProt P27833); assay: X-ray crystal structure, […] Å; type: binding; settings: covalent external aldimine with PLP; eight subunits
WecE, sequence (P27833 whole entry): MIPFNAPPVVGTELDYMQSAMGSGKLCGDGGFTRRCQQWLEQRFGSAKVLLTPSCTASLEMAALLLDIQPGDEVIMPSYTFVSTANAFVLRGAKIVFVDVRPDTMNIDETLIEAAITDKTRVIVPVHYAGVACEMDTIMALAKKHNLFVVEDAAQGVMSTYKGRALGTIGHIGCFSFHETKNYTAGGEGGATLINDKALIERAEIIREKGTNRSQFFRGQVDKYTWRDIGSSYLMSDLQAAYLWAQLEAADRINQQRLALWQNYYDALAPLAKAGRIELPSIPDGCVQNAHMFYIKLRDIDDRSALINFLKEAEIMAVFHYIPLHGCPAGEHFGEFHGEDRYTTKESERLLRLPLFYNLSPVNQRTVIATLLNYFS

Cc1ncc(COP(=O)(O)O)c(C=O)c1O [PLP]
X-ray crystal structure, 2.47 Å (CalS13; covalent internal aldimine with Lys202, all six subunits): All six subunits contained PLP as internal aldimines of Lys202

Cc1cn([C@H]2C[C@H](O)[C@@H](COP(=O)(O)OP(=O)(O)O[C@H]3O[C@H](C)[C@H](N)[C@H](O)[C@H]3O)O2)c(=O)[nH]c1=O [TDP-4-amino-4,6-dideoxy-α-D-galactose]
X-ray crystal structure, 2.24 Å (WecE): WecE cocrystallization led to WecE/PLP/TDP-4-amino-4,6-dideoxygalactose ternary complexes

Cc1cn([C@H]2C[C@H](O)[C@@H](COP(=O)(O)OP(=O)(O)O)O2)c(=O)[nH]c1=O [TDP]
X-ray crystal structure, 2.47 Å (CalS13; with PLP internal aldimine, three of six subunits): three had electron density for just TDP
